# Test results reported in patent publication US11214803B2, “Modulators of YAP1 expression” (Ionis Pharmaceuticals, Inc., priority 2019, dated 2022).
# Strand notation (5' to 3'): a small letter for the sugar, then the base; units joined by * are phosphorothioate-linked, units joined directly phosphodiester-linked; [ ] holds rarer units or linkages, { } end groups; capitals alone tell only the bases. k = constrained ethyl (cEt); [5mC] = 5-methylcytosine; d = 2'-deoxy (DNA)
# System: Yap1 mRNA
# Assay: Antisense inhibition of human Yap1 in A-431 cells by cEt gapmers, single dose (Example 2, RTS4814)
# Type: cell-based
# Conditions: A-431 cells, 5,000 cells per well, free uptake, 2,000 nM modified oligonucleotide, approx. 48 hours, RTS4814, normalized to RIBOGREEN; Table 4; asterisk (*) = targets amplicon region of primer probe set
# Summary of the method: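 A-431 cells (5,000/well) received 2,000 nM oligonucleotide by free uptake for about 48 h. Yap1 mRNA was then quantified by RT-qPCR with primer probe set RTS4814, normalized to RIBOGREEN total RNA, and reported as % of untreated control; asterisked values mark oligos inside the amplicon.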
row,Substance,YAP1 (% UTC)
1,716472 (kG*kT*k[5mC]*dA*dT*dG*d[5mC]*dA*d[5mC]*dA*dT*dT*dA*kT*kG*kA; antisense) [Compound 716472],78
2,716364 (k[5mC]*kG*k[5mC]*d[5mC]*dG*d[5mC]*dG*dG*dG*dT*dG*d[5mC]*d[5mC]*kG*kG*kT; antisense) [Compound 716364],110
3,716430 (kT*kA*kA*d[5mC]*dT*dG*dG*dG*d[5mC]*dA*dA*dA*dA*kG*kG*kA; antisense) [Compound 716430],28
4,716505 (antisense kG*kA*kT*dT*dT*dA*dA*dT*d[5mC]*dT*dT*dT*d[5mC]*kT*kG*k[5mC]) [Compound 716505],35
5,716490 (kA*k[5mC]*kA*dA*d[5mC]*d[5mC]*dA*dA*d[5mC]*dT*dA*dT*dT*kA*k[5mC]*kT; antisense) [Compound 716490],63

# Same assay, conditions: Table 5; A-431 cells, 5,000 cells per well, free uptake, 2,000 nM modified oligonucleotide, approx. 48 hours; RTS4814; normalized to RIBOGREEN; Yap1 mRNA relative to untreated control cells
row,Substance,YAP1 (% UTC)
1,716362 (kA*kG*kG*d[5mC]*dG*dG*d[5mC]*dT*dG*d[5mC]*d[5mC]*d[5mC]*dT*kT*kG*kG; antisense) [Compound 716362],94
2,716479 (kG*kA*kA*d[5mC]*dA*dA*dT*d[5mC]*dT*dT*dG*dA*dA*kG*kG*k[5mC]; antisense) [Compound 716479],32

# Same assay, conditions: Table 6; A-431 cells, 5,000 cells per well, free uptake, 2,000 nM modified oligonucleotide, approx. 48 hours; RTS4814; normalized to RIBOGREEN; Yap1 mRNA relative to untreated control cells
row,Substance,YAP1 (% UTC)
1,716390 (kT*k[5mC]*kT*d[5mC]*dT*dG*dG*dT*dT*d[5mC]*dA*dT*dG*kG*k[5mC]*kA; antisense) [Compound 716390],66
2,716465 (kG*k[5mC]*kT*d[5mC]*dT*dT*dT*d[5mC]*dT*dA*dG*dA*dA*k[5mC]*kA*k[5mC]; antisense) [Compound 716465],82

# Same assay, conditions: Table 18; A-431 cells, 5,000 cells per well, free uptake, 2,000 nM modified oligonucleotide, approx. 48 hours; RTS4814; normalized to RIBOGREEN; Yap1 mRNA as percent of untreated control
row,Substance,YAP1 (% UTC)
1,1075268 (antisense kT*kA*kT*dT*dA*dA*d[5mC]*d[5mC]*dT*dG*dG*dA*dG*kA*kG*kT) [Compound 1075268],47
2,1076100 (kA*kA*kT*dA*dA*dG*dG*dG*dA*d[5mC]*dT*dA*d[5mC]*kT*kT*kT; antisense) [Compound 1076100],65
3,1075620 (kG*kA*kT*dG*dA*dA*dG*dA*dA*dT*d[5mC]*dT*dA*kT*kA*kG; antisense) [Compound 1075620],88

# Same assay, conditions: Table 19; A-431 cells, 5,000 cells per well, free uptake, 2,000 nM modified oligonucleotide, approx. 48 hours; RTS4814; normalized to RIBOGREEN; Yap1 mRNA as percent of untreated control
row,Substance,YAP1 (% UTC)
1,1075589 (kA*kA*kT*dT*dA*dG*d[5mC]*dA*dG*dG*dG*d[5mC]*dA*kG*kA*k[5mC]; antisense) [Compound 1075589],84
2,1074949 (antisense kG*kT*kG*dA*dT*dT*dT*dT*dT*dT*d[5mC]*dT*dG*kA*kG*kT) [Compound 1074949],31
3,1075013 (antisense k[5mC]*kA*kT*dA*dA*dA*d[5mC]*d[5mC]*d[5mC]*dA*d[5mC]*dT*dT*k[5mC]*kG*kA) [Compound 1075013],102

# Same assay, conditions: Table 20; Yap1 mRNA, percent of untreated control; 3-10-3 cEt gapmers targeting SEQ ID NO.: 1 and 2
row,Substance,YAP1 (% UTC)
1,1075782 (kT*kA*kT*dT*dA*dG*dG*dT*dT*dT*d[5mC]*d[5mC]*d[5mC]*kG*kT*kT; antisense) [Compound 1075782],10
2,1074278 (antisense k[5mC]*kT*kT*dG*dG*dG*dT*d[5mC]*dT*dA*dG*d[5mC]*d[5mC]*kA*kA*kG) [Compound 1074278],31
3,1074150 (antisense kG*kG*k[5mC]*d[5mC]*dG*dA*dG*dG*dT*dG*dG*dA*dG*kA*kA*kG) [Compound 1074150],85
4,1075686 (kG*kT*kA*dA*dT*dT*dA*d[5mC]*dA*dG*dT*dG*dT*k[5mC]*kT*k[5mC]; antisense) [Compound 1075686],10

# Same assay, conditions: Table 21; Yap1 mRNA, percent of untreated control; 3-10-3 cEt gapmers targeting SEQ ID NO.: 1 and 2
row,Substance,YAP1 (% UTC)
1,1075975 (kG*kG*kA*dA*dA*dA*dA*dA*dA*dT*dT*d[5mC]*d[5mC]*kG*k[5mC]*kA; antisense) [Compound 1075975],84
2,1074951 (antisense k[5mC]*kA*kT*d[5mC]*dA*dG*dG*dT*dT*dA*dA*dG*dT*kG*kA*kT) [Compound 1074951],85
3,1076007 (k[5mC]*kA*kT*dT*dA*dG*dG*d[5mC]*d[5mC]*dT*dT*dT*dT*kA*k[5mC]*kT; antisense) [Compound 1076007],27
4,1075367 (k[5mC]*kA*kT*dT*dA*d[5mC]*dT*dT*dA*dG*dG*dG*d[5mC]*kT*kT*kA; antisense) [Compound 1075367],12

# Same assay, conditions: Table 22; Yap1 mRNA as percent of untreated control; 3-10-3 cEt gapmers; single dose
row,Substance,YAP1 (% UTC)
1,1074216 (antisense kG*kA*kT*dT*dT*dG*dG*dG*d[5mC]*dT*d[5mC]*d[5mC]*dG*kG*k[5mC]*kG) [Compound 1074216],58
2,1074888 (antisense kG*kT*kT*dT*dA*dG*d[5mC]*d[5mC]*dT*dG*dA*dA*dG*k[5mC]*kA*kA) [Compound 1074888],58

# Same assay, conditions: Table 23; Yap1 mRNA as percent of untreated control; 3-10-3 cEt gapmers; single dose
row,Substance,YAP1 (% UTC)
1,1074633 (antisense kG*kA*kG*dG*d[5mC]*dT*dT*dT*dT*d[5mC]*dA*dT*dA*kG*k[5mC]*kA) [Compound 1074633],78
2,1074825 (kA*k[5mC]*k[5mC]*dT*dG*dA*dG*d[5mC]*dA*d[5mC]*dT*d[5mC]*dA*kT*kT*kT; antisense) [Compound 1074825],36
3,1075177 (antisense kG*kA*kA*dA*dT*dT*dA*d[5mC]*d[5mC]*d[5mC]*dG*dG*dG*kA*kA*k[5mC]) [Compound 1075177],27
4,1075753 (k[5mC]*kT*kA*dG*dA*dA*d[5mC]*d[5mC]*dT*dT*dT*dT*d[5mC]*k[5mC]*kA*kG; antisense) [Compound 1075753],65
5,1076073 (k[5mC]*kT*kT*dT*dA*dA*dG*dG*dT*d[5mC]*dT*dA*dG*kT*kT*kA; antisense) [Compound 1076073],47
6,1076489 (antisense k[5mC]*kA*kA*dA*dA*dT*dA*dG*dG*dT*dG*dA*dG*kT*k[5mC]*kA) [Compound 1076489],2

# Same assay, conditions: Table 24; Yap1 mRNA as percent of untreated control; 3-10-3 cEt gapmers targeting SEQ ID NO.: 1, and 2
row,Substance,YAP1 (% UTC)
1,1074922 (antisense k[5mC]*kT*kT*dT*d[5mC]*d[5mC]*dA*d[5mC]*dT*d[5mC]*dA*dA*dG*kT*kT*kA) [Compound 1074922],87
2,1075786 (k[5mC]*kT*kA*dT*dA*dT*dT*dG*dA*dT*dT*d[5mC]*d[5mC]*kA*kG*kA; antisense) [Compound 1075786],19
3,1076490 (antisense k[5mC]*k[5mC]*kA*dA*dA*dA*dT*dA*dG*dG*dT*dG*dA*kG*kT*k[5mC]) [Compound 1076490],2

# Same assay, conditions: Table 25; Yap1 mRNA as percent of untreated control; 3-10-3 cEt gapmers targeting SEQ ID NO.: 1, and 2
row,Substance,YAP1 (% UTC)
1,1075819 (kG*kT*kA*dT*dA*dT*d[5mC]*d[5mC]*dG*dT*dT*d[5mC]*dT*k[5mC]*kA*kT; antisense) [Compound 1075819],2
2,1075659 (kA*kA*kG*dT*dA*dA*dA*dA*dA*dA*d[5mC]*dG*dG*kT*kT*kT; antisense) [Compound 1075659],125
3,1075627 (kA*kT*kA*dA*dG*dA*dT*dA*dG*dT*d[5mC]*dG*dG*kT*kT*k[5mC]; antisense) [Compound 1075627],19

# Same assay, conditions: Table 32; Yap1 mRNA, percent of untreated control; 3-10-3 cEt gapmers targeting SEQ ID NO.: 1, and 2
row,Substance,YAP1 (% UTC)
1,1075058 (antisense kA*kT*kT*dA*d[5mC]*dA*dA*dA*dG*dT*dA*dG*d[5mC]*kA*kA*k[5mC]) [compound 1075058],66

# Same assay, conditions: Table 33; Yap1 mRNA, percent of untreated control; 3-10-3 cEt gapmers targeting SEQ ID NO.: 1, and 2
row,Substance,YAP1 (% UTC)
1,1075859 (antisense kA*k[5mC]*kT*dT*dA*dT*d[5mC]*dA*d[5mC]*dT*d[5mC]*dT*dG*k[5mC]*k[5mC]*k[5mC]) [compound 1075859],20
2,1074963 (antisense kT*kA*kG*dG*d[5mC]*dA*dA*dG*d[5mC]*dA*dG*d[5mC]*dT*kA*kA*kA) [compound 1074963],76
3,1074867 (kT*kA*kA*d[5mC]*dA*dT*dA*dT*dG*dA*dG*d[5mC]*dA*kT*kG*k[5mC]; antisense) [compound 1074867],40

# Same assay, conditions: Yap1 mRNA as percent of untreated control; A-431 cells; 3-10-3 cEt gapmers targeting SEQ ID NO.: 1, and 2; Table 30
row,Substance,YAP1 (% UTC)
1,1075024 (antisense kA*k[5mC]*kT*dG*dA*dA*d[5mC]*dA*dA*dG*dT*dA*dT*k[5mC]*kT*kT) [compound 1075024],32
2,1075632 (antisense kT*k[5mC]*k[5mC]*d[5mC]*dT*dA*dT*dA*dA*d[5mC]*d[5mC]*dA*dA*kA*kT*kG) [compound 1075632],95

# Same assay, conditions: Yap1 mRNA as percent of untreated control; A-431 cells; 3-10-3 cEt gapmers targeting SEQ ID NO.: 1, and 2; Table 31
row,Substance,YAP1 (% UTC)
1,1075857 (antisense k[5mC]*kT*kT*dA*dA*dA*d[5mC]*dA*dA*dT*d[5mC]*d[5mC]*d[5mC]*kT*kA*kA) [compound 1075857],69
2,1076081 (kG*kA*kT*dA*dA*dT*dT*d[5mC]*dA*d[5mC]*d[5mC]*d[5mC]*dT*kT*kG*kT; antisense) [compound 1076081],15
